{"source": "paper PMC7934687", "about": "(Vaccine, 2021)", "type_in_all_cases": "binding", "key": {"HLA-A*02:01": {"target": "HLA-A*02:01 (Homo sapiens, UniProt P04439, D140Y/D185E/D98H/E176V/E277Q/G131W/G231S/I119V/I121R/I166T/I218V/L300P/L318F/N151K/N90K/P208A/P217A/Q86G/Q94H/R138H/R169H/T345S)"}, "HLA-DRB1*15:01": {"target": "HLA-DRB1*15:01 (Homo sapiens, UniProt P01903+P01911)", "details": "reference peptide, short 15 amino acid form"}, "HLA-DRB1*01:01": {"target": "HLA-DRB1*01:01 (Homo sapiens, UniProt P01903+P01911, A100R/D57E/F55L/F60I/F76Y/I96L/L162R/M171V/P40L/Q125E/R42F/V115G/Y59C)", "details": "reference peptide, short 15 amino acid form"}}, "note": "Where two headings read alike, the source gives them in different places."}
{"sequence": "ISDEFSSNV", "values": [{"measurement": "Practical Exchange rate", "setting": "HLA-A*02:01; […], exiting peptide removed", "value": 93.5, "unit": "%"}]}
{"sequence": "PVSKMRMATPLLMQA [CLIP]", "values": [{"measurement": "interaction with recombinant HLA-DRB1*15:01", "setting": "HLA-DRB1*15:01", "value": "interacts strongly"}, {"measurement": "interaction with recombinant HLA-DRB1*01:01", "setting": "HLA-DRB1*01:01", "value": "interacts strongly"}]}
{"sequence": "SVLLFLAFV", "values": [{"measurement": "Practical Exchange rate", "setting": "HLA-A*02:01", "value": 57.5, "unit": "%"}]}
{"sequence": "YLYALVYFL", "values": [{"measurement": "Practical Exchange rate", "setting": "HLA-A*02:01; […], exiting peptide removed", "value": 85, "unit": "%"}]}
